Where a name gives a salt, the structure may show the parent alone.

The subject of series [1] is Ba/F3-TEL-FGFR3 cell line. The series is described as follows: Ba/F3-TEL-FGFR3 cell proliferation assay. In kind it is cell-based. The following applies: 72 hours, Alamar Blue; read-out: IC50 against Ba/F3-TEL-FGFR3 cell line. The method, then: Ba/F3-TEL-FGFR3 & Ba/F3 (WT) Cell Proliferation Assays
Stably transfected Ba/F3-TEL-FGFR3 cells were plated out into black 96-well tissue culture plates with clear bottoms in RPMI medium containing 10% FBS and 0.25 mg/ml G418 at a density of 5×10^3 cells/well (200 μl per well). The parental wild-type Ba/F3 cells (DSMZ no.: ACC 300) were plated out into black 96-well tissue culture plates with clear bottoms in RPMI medium containing 10% FBS and 2 ng/ml mouse IL-3 (R&D Systems) at a density of 2.5×10^3 cells/well (200 μl per well). Plates were placed in an incubator overnight before adding the compounds the following day. Dilutions of compounds were made in DMSO starting at 10 mM and were diluted into the wells to give a final DMSO concentration of 0.1% in assay. Compounds were left on the cells for 72 hours before the plates were removed from the incubator and 20 μl of Alamar Blue™ (Biosource) was added to each well. Plates were placed in the incubator for 4-6 hours before reading plates at 535 nm (excitation)/590 nm (emission) on a Fusion plate reader (Packard).
In particular, compounds of the invention were tested against the Ba/F3-TEL-FGFR3 cell line.
In general terms: Alamar Blue is a resazurin reagent that responds to reducing activity.

In series [2] the test system is LP-1 cell line (DSMZ no.: ACC 41) derived from human multiple myeloma. As to the kind of experiment: Cell-based pERK ELISA in LP-1 cells. The following applies: LP-1, FGF-1/Heparin stimulated, for the 1 μM bound: or at least 50% inhibition at a concentration of 1 μM. Here is the method:
Enzyme buffer A: 8 mM MOPS, pH 7.0, 0.2 mM EDTA, 10 mM MgAcetate Enzyme buffer B: 8 mM MOPS, pH 7.0, 0.2 mM EDTA, 2.5 mM MnCl2, 10 mM MgAcetate Enzyme buffer C: 8 mM Mops, pH 7.0, 0.2 mM EDTA, 10 mM MnCl2, 10 mM MgAcetate. Cell-Based pERK ELISA Method
LP-1 or JIM-1 multiple myeloma cells were seeded in 96 well plates at 1×10^6 cells/ml in 200 ul per well in serum free media. HUVEC cells were seeded at 2.5×10^5 cells/ml and allowed to recover for 24 h prior to transfer to serum free media. Cells were incubated for 16 h at 37° C. prior to the addition of a test compound for 30 minutes. Test compounds were administered at a 0.1% final DMSO concentration. Following this 30 minute incubation a FGF-1/Heparin (FGF-1 at 100 ng/ml final and Heparin at 100 ug/ml) mixture or VEGF^165 (100 ug/ml) was added to each of the wells for a further 5 minutes. The media was removed and 50 ul ERK ELISA lysis buffer (R and D Systems DuoSet ELISA for pERK and Total ERK #DYC-1940E, DYC-1018E) added. ELISA plates and standards were prepared according to the standard DuoSet protocols and the relative amounts of pERK to total ERK in each sample calculated according to the standard curve.
In particular, compounds of the invention were tested against the LP-1 cell line (DSMZ no.: ACC 41) derived from human multiple myeloma.

On to `CN(C)C(=O)c1ccn2c(-c3cccc(NC(=O)NCC(F)(F)F)c3)cnc2c1` [Example 1, 3-[3-[3-(2,2,2-Trifluoroethyl)ureido]-phenyl}imidazo[1,2-a]pyridine-7-carboxylic acid dimethylamide Hydrochloride], for which, in series [1], the IC50 was less than 20 µM.
`Cn1cncc1CNC(=O)c1ccn2c(-c3cccc(NC(=O)NCC(F)(F)F)c3)cnc2c1` [Example 20, 3-{3-[2,2,2-Trifluoro-ethyl)-ureido]-imidazo[1,2-a]pyridine-7-[5-(1-N-methyl-imidazole)]-methylamide] showed a melting point greater than 260 °C.
Turning to `CC(CO)NC(=O)c1ccn2c(-c3cccc(NC(=O)NCC(F)(F)F)c3)cnc2c1` (stereo not shown) [Example 17, 3-{3-[3-(2,2,2-Trifluoro-ethyl)-ureido]-phenyl}-imidazo[1,2-a]pyridine-7-carboxylic acid (2-hydroxy-1-methyl-ethyl)-amide], the IC50 in series [2] is less than 20 µM.
The same measure, in the same setting: in the case of `O=C(NCC(F)(F)F)Nc1cccc(-c2cnc3cc(C(=O)N4CCC(O)C4)ccn23)c1` (stereo not shown) [Example 7, 1-{3-[7-(3-Hydroxy-pyrrolidine-1-carbonyl)-imidazo[1,2-a]pyridin-3-yl]-phenyl}-3-(2,2,2-trifluoro-ethyl)-urea] it was less than 20 µM; in that of `CNC(=O)c1ccn2c(-c3cccc(NC(=O)NCC(F)(F)F)c3)cnc2c1` [Example 2, 3-[3-[3-(2,2,2-Trifluoroethyl)ureido]-phenyl}imidazo[1,2-a]pyridine-7-carboxylic acid methylamide], less than 20 µM.
For the molecule `O=C(NCC(F)(F)F)Nc1cccc(-c2cnc3cc(C(=O)NCCCc4cnc[nH]4)ccn23)c1` [Example 19, 3-{3-[2,2,2-Trifluoro-ethyl)-ureido]-imidazo[1,2-a]pyridine-7-[3-(1H-imidazol-4-yl)]-propanamide], the melting point was 170 °C.
`Cn1cncc1NC(=O)c1ccn2c(-c3cccc(NC(=O)NCC(F)(F)F)c3)cnc2c1` [Example 18, 3-{3-[2,2,2-Trifluoro-ethyl)-ureido]-imidazo[1,2-a]pyridine-7-[5-(1-N-methyl-imidazole)]-amide] yielded a melting point of 260 °C.

In general, melting point refers to the temperature of the solid-liquid transition.

(Values after US8859583B2, “Bicyclic heterocyclic compounds as protein tyrosine kinase inhibitors” (Astex Therapeutics Limited, priority 2007, dated 2014).)
